The structures appear in SMILES notation.

We go through 3 compounds from US9725414B2, “Fungicidal N-bicycloalkyl and N-tricycloalkyl pyrazole-4-(thio)carboxamide derivatives” (priority 2011, dated 2017).

In data set [1] the test system is Septoria tritici. As to the kind of experiment: Example I: in vivo preventive test on Septoria tritici (wheat), acetone/tween/DMSO preparation. To be noted: 500 ppm of active ingredient, grading 24 days after contamination. The essentials: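 Scipion wheat grown at 22° C, sprayed at 1-leaf stage (10 cm); controls received acetone/tween/DMSO/water without active. Inoculated 24 h later with S. tritici spores (500 000/mL), held 72 h at 18° C, 100% RH, then 21 days at 90% RH. % efficacy vs controls scored 24 days post-inoculation.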

In data set [2] the test system is Botrytis cinerea. As to the kind of experiment: Example P: in vivo preventive test on Botrytis cinerea (grey mould), gherkin plants. To be noted: 500 ppm of active ingredient, grading 4 to 5 days after contamination. In a few lines: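 Gherkin plants at Z11 cotyledon stage sprayed preventively with active ingredient, then inoculated 24 h later with B. cinerea spores (50 000/mL) in PDB/fructose nutrient solution. Incubation at 17 °C and 90% RH; % efficacy graded 4–5 days post-inoculation against solvent-treated controls.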

Data set [3] has as its system Sphaerotheca fuliginea. As to the kind of experiment: Example B: in vivo preventive test on Sphaerotheca fuliginea (powdery mildew on cucurbits), gherkin plants. To be noted: 500 ppm of active ingredient, grading 12 days after contamination. In a few lines:
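Gherkin plants grown at 24 °C were sprayed with compound at the Z11 cotyledon stage; controls received acetone/tween/DMSO/water without active. 24 h later, cotyledons were inoculated by spraying with Sphaerotheca fuliginea spores (100 000 spores per mL).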

Data set [4] concerns Puccinia recondita. As to the kind of experiment: Example M: in vivo preventive test on Puccinia recondita (brown rust on wheat). To be noted: 500 ppm of active ingredient, grading 12 days after contamination. The essentials: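 Wheat (Scipion) sprayed with compound at 1-leaf stage, grown at 22° C. Inoculated 24 h later with a spore suspension at 100 000 spores per mL. Efficacy (%) graded 12 days after inoculation against solvent-treated controls.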

In data set [5] the test system is Pyrenophora teres. As to the kind of experiment: Example F: in vivo preventive test on Pyrenophora teres (barley), acetone/tween/DMSO preparation. To be noted: 500 ppm of active ingredient, barley, grading 14 days after contamination. In a few lines: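 Barley ("Plaisant") grown at 22° C was sprayed at the 1-leaf stage (10 cm) with active ingredient in acetone/tween/DMSO/water, with solvent-only controls. After 24 h, leaves were inoculated with Pyrenophora teres spores (12 000 spores per mL) from 12-day cultures. % efficacy versus controls graded 14 days post-contamination.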

Data set [6] has as its system Uromyces appendiculatus. As to the kind of experiment: Example Q: in vivo preventive test on Uromyces appendiculatus (bean rust). To be noted: Uromyces appendiculatus on bean plants, 500 ppm of active ingredient, grading 11 days after contamination. In a few lines:
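Saxa bean plants at 2-leaf stage, grown at 24° C., sprayed preventively with compound; 24 h later inoculated with U. appendiculatus spores (150 000 spores per mL). Percent efficacy graded 11 days after inoculation versus solvent-treated controls.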

Data set [7] deals with Alternaria brassicae. As to the kind of experiment: Example D: in vivo preventive test on Alternaria brassicae (leaf spot on radish). To be noted: 500 ppm of active ingredient, grading 6 days after contamination. Here is the method: In Vivo Preventive Test on Alternaria brassicae (Leaf Spot on Radish) […] Radish plants (“Pernod Clair” variety), sown in starter cups on a 50/50 peat soil pozzolana substrate and grown at 17° C., are treated at the cotyledon stage by spraying with the active ingredient prepared as described above. Plants, used as controls, are treated with the mixture of acetone/tween/DMSO/water not containing the active material. After 24 hours, the plants are contaminated by spraying the cotyledons with an aqueous suspension of Alternaria brassicae spores (50 000 spores per mL). The spores are collected from a 15-day-old culture. The contaminated radish plants are incubated at 20° C. and at 100% relative humidity. Grading (% of efficacy) is carried out 6 days after the contamination, in comparison with the control plants.

Data set [8] has as its system Pyricularia oryzae. Type of data set: in vivo. To be noted: Pyricularia oryzae on rice plants, preventive, 500 ppm of active ingredient, grading 6 days after contamination.
The nature of data set [9]: log P by HPLC on reversed-phase column (C 18), EEC Directive 79831 Annex V.A8. Type of data set: physicochemical. To be noted: HPLC reversed-phase C 18, 40° C., 0.1% aqueous formic acid and acetonitrile gradient; several values = mixture of two or more isomers. The essentials: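 Reversed-phase C18 HPLC at 40° C, 0.1% aqueous formic acid/acetonitrile linear gradient 10% to 90% acetonitrile, per EEC Directive 79831 Annex V.A8. log P obtained from retention time by linear interpolation between unbranched alkan-2-ones (C3-C16) of known log P.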

Consider `Cn1nc(C(F)F)c(C(=O)N(C2CC2)C2CCCC3CCCCC32)c1F` (mixture of isomers) [Example 31], for which the Efficacy in data set [1] was 96%; in data set [2] it was 100%; in [3], 100%; in [4], 100%; in data set [5], 97%; in data set [6], 100%. For the same compound, the Efficacy worked out at 100% in data set [7] and 80% in data set [8].
What is called logP is the decadic logarithm of the partition coefficient of the neutral form, usually between octanol and water. Consider `Cn1nc(C(F)F)c(C(=O)NC2CCC3CCCC32)c1F` (stereo not shown) [Example 2], for which, in data set [9], the logP was 2.86. The Efficacy was 70% in data set [2]; 98% in data set [4]; 98% in data set [6]; 70% in data set [7]; 71% in data set [8].
Turning to `CON(C(=O)c1cn(C)nc1C(F)F)C1CCC2CCCCC21` (stereo not shown) [Example 11], the Efficacy in [1] amounted to 71%; in data set [3], 100%; in data set [4] it was 94%; in data set [5], 100%; in data set [6], 100%; in [7], 100%. For the same compound, the Efficacy in data set [8] is on record as 92%. Also, the logP in data set [9] worked out at 3.50.
